Values quoted from earlier work, collected in patent publication US10537125B2, “Chlorine dioxide gas releasing package label insert for enhancing microbial safety of food” (priority 2016, dated 2020).

Legend:
[1] = at 20° C. and 760 mm Hg
[2] = system: Salmonella; conditions: one-time application, treatment time 6 min to 120 min
[3] = system: Salmonella; conditions: constant ClO2 0.5 mg/L air for 15, 30, and 60 min

Structure (SMILES): [O][Cl+][O-] [ClO2, chlorine dioxide]
- solubility in water [1]: about 70 g/L
- Salmonella inactivation range reported by others [2]: 1.54-5.15 log
- reduction of Salmonella on mung bean sprouts [3]: up to 4 log CFU Salmonella/g
